Data taken from PubChem BioAssay AID651581 (Sanford-Burnham Center for Chemical Genomics, 2012).
The source made the active and inactive calls. How the calls were made is not given here.

Key:
[1] = target: Endothelial PAS domain-containing protein 1 (Homo sapiens) (UniProt Q99814); test: HIF-2a and HIF-1a reporter inhibition panel, dose response, selectivity assay for HIF-2a inhibitor project, cell-based, luminescence (AID 651581)
[2] = target: Hypoxia-inducible factor 1-alpha (Homo sapiens) (UniProt Q16665); test: as above; conditions: HIF-1a
Hypoxia-inducible factor 1-alpha (Homo sapiens), sequence (Q16665 whole entry, looked up): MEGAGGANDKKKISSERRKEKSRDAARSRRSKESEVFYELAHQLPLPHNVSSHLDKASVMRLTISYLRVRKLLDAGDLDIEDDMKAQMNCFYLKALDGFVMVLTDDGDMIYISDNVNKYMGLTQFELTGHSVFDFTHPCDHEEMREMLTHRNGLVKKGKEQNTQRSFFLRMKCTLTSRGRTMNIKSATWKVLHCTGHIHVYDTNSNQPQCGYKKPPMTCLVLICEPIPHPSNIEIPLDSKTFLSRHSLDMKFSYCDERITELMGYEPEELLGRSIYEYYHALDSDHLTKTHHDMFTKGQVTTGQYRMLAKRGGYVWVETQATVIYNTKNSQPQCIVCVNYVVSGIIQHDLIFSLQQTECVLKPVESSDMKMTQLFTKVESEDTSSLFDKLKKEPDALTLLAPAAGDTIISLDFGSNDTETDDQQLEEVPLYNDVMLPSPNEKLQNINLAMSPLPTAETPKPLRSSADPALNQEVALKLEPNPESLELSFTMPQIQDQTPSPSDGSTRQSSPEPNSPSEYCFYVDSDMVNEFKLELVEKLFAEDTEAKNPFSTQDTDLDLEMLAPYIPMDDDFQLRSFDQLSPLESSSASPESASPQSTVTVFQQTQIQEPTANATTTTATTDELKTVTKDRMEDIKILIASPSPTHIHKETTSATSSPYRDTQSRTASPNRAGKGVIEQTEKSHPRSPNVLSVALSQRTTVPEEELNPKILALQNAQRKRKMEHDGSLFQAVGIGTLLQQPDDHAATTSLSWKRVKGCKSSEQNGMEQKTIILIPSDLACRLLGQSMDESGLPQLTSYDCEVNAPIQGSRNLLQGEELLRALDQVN

| SMILES | IC50 ([1]; HIF-2a PANC, mean of runs) | IC50 ([1]; HIF-2a PANC, run 1) [µM] | IC50 ([1]; HIF-2a PANC, run 2) [µM] | IC50 ([1]; HIF-2a, mean of runs) | IC50 ([1]; HIF-2a, run 1) [µM] | IC50 ([1]; HIF-2a, run 2) [µM] | IC50 ([2]; run 1) [µM] | IC50 ([2]; run 2) [µM] | IC50 ([2]; mean of runs) |
| --- | --- | --- | --- | --- | --- | --- | --- | --- | --- |
| O=C(Nc1ccc(NC(=S)NC(=O)c2ccco2)cc1)c1ccc(Br)cc1 | > 99 µM (inactive) | > 99 | > 99 | 1.02 µM | 1.18 | 0.871 | 0.639 | > 99 | – |
| O=C(Nc1ccc(NC(=O)c2ccco2)cc1)c1ccc2c(c1)OCCO2 | 11.2 µM | 10.1 | 12.4 | 7.76 µM | 8.03 | 7.48 | > 99 | 86 | – |
| O=C(O)c1cccc(CSc2nnc(-c3ccc(Cl)cc3)o2)c1 | 2.81 µM | 3.03 | 2.6 | 1.97 µM | 1.87 | 2.07 | > 99 | > 99 | – |
| Cc1cc(NC(=O)c2ccccc2)c(Cl)cc1N | inactive | 10.1 | 19.5 | 2.75 µM | 2.56 | 2.94 | 10 | 12.9 | 11.5 µM |
| Cc1cc(SC#N)cc(C)c1NC(=O)CCl | – | > 99 | 93.4 | inactive | 12.6 | 7.78 | 20.2 | 28.5 | inactive |
| O=C(O)c1ccc(N/N=C/c2ccc(C(F)(F)F)cc2)cc1 | inactive | 75.9 | 8.53 | 9.84 µM | 9.59 | 10.1 | 22.5 | 21.7 | inactive |
| COc1cc(OC)cc(-c2nnc(Nc3nc4c(F)cccc4s3)o2)c1 | 6.26 µM | 7.31 | 5.21 | 3.15 µM | 4.09 | 2.2 | > 99 | > 99 | – |
| CS(=O)(=O)c1ccc(-c2cn3cc(C(=O)O)ccc3n2)cc1 | – | 86.7 | > 99 | inactive | 28.8 | 47.2 | > 99 | > 99 | > 99 µM (inactive) |
| COc1ccc(OCc2cccc(C(=O)O)c2)cc1 | – | > 99 | < 30 | 0.781 µM | 0.76 | 0.802 | 19 | 33.7 | 26.3 µM |
| COc1cccc(NC(=O)c2nc(S(C)(=O)=O)ncc2Cl)c1 | inactive | 32.4 | 89.6 | inactive | 12.2 | 11.3 | 14.7 | 28.2 | inactive |
| Cc1nc2cc(-c3cccc(F)c3)nn2c(C)c1CCC(=O)N1CCC2(CC1)OCCO2 | 2.03 µM | 2.17 | 1.9 | 1.27 µM | 1.27 | 1.28 | 81.5 | 56.2 | 68.8 µM |
| CCOc1ccc(C(=O)Nc2cccc(C(=O)O)c2C)cc1Cl | 28.2 µM | 25 | 31.5 | inactive | 13.3 | 16.6 | > 30 | > 99 | – |
| O=Cc1ccc(-c2cccs2)s1 | > 99 µM (inactive) | > 99 | > 99 | 5.55 µM | 5.49 | 5.62 | > 99 | > 99 | – |
| CCOC(=O)c1ccc(Oc2nc(NC(C)(C)C)nc(N(C)C)n2)cc1 | inactive | 20.7 | 51.9 | inactive | 8.84 | 11.9 | 21.8 | 31.4 | inactive |
| Cc1ccc(C)c(-c2nc3cc(N)ccc3o2)c1 | 2.65 µM | 2.6 | 2.7 | 3.03 µM | 3.35 | 2.7 | > 99 | 56.4 | – |
| O=C(NCc1ccccc1)C(=O)Nc1cccc(C(=O)O)c1 | > 99 µM (inactive) | > 99 | > 99 | 9.97 µM | 9.98 | 9.95 | > 99 | > 99 | – |
| O=C(O)COc1ccc2oc3ccccc3c2c1 | inactive | 75.3 | 20.5 | inactive | 13.1 | 12.7 | 27.8 | 59 | 43.4 µM |
| COc1ccccc1C(C[N+](=O)[O-])c1c(N)n(C)c(=O)n(C)c1=O (stereo not given) | – | > 99 | 51.9 | 9.86 µM | 10.2 | 9.56 | 20.9 | 16.9 | inactive |
